Reference: ChEMBL document CHEMBL4813912, “Progress in the Development of Small Molecular Inhibitors of Focal Adhesion Kinase (FAK)” (J Med Chem, 2020)
Blank lines part the entries; values can stand above or below the compound they belong to.

Experiments:
[1] = target: Protein-tyrosine kinase 2-beta (Homo sapiens, UniProt Q14289); assay: Inhibition of pyk2 (unknown origin)
[2] = system: OVCAR-3; assay: Cytotoxicity against human OVCAR-3 cells in presence of metformin and carboplatin relative to control; type: functional
[3] = target: T1, Focal adhesion kinase 1 (Homo sapiens, UniProt Q05397)
T1 sequence (Q05397 whole entry): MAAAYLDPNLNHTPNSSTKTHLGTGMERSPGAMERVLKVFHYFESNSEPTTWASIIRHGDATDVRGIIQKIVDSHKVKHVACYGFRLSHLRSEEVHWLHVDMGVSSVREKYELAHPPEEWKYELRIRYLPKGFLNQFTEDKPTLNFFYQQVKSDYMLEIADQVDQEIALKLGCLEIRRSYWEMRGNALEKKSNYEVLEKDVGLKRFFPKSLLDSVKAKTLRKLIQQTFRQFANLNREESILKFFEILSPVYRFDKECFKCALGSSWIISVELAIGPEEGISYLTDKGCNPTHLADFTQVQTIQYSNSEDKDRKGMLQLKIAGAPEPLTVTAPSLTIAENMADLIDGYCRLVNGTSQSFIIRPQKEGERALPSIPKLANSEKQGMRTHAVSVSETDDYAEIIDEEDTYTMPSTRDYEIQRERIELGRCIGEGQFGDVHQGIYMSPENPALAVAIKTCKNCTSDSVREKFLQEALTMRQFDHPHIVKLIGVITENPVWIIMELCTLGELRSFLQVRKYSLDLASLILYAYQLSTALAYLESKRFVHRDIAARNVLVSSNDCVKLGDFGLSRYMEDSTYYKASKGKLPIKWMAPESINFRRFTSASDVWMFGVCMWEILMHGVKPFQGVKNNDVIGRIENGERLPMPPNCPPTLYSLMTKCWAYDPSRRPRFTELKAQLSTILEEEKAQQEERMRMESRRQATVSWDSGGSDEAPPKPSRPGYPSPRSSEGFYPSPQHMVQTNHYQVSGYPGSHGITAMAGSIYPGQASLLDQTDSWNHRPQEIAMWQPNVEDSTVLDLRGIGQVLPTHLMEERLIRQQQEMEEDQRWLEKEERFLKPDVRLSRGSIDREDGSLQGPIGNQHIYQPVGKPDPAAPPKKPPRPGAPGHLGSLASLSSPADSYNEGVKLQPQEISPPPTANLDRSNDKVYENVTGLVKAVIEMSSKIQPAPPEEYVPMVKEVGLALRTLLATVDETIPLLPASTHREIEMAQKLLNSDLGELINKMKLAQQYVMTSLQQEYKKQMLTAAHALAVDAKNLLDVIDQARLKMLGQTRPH
Description: Inhibition of FAK (unknown origin) (410 to 689 residues) assessed as reduction in poly(Glu-Tyr) phosphorylation using poly (Glu,Tyr) as substrate by ELISA-based assay

[4] = target: von Hippel-Lindau disease tumor suppressor/Focal adhesion kinase 1 (Homo sapiens) (UniProt Q05397+P40337); assay: Induction of VHL-mediated FAK degradation in human PC3 cells at 10 to 10000 nM incubated for 24 hrs by Western blot analysis relative to control; type: cell-based; conditions: PC-3, dose 10-10000 nM
von Hippel-Lindau disease tumor suppressor/Focal adhesion kinase 1 (Homo sapiens), sequence (P40337 whole entry partner): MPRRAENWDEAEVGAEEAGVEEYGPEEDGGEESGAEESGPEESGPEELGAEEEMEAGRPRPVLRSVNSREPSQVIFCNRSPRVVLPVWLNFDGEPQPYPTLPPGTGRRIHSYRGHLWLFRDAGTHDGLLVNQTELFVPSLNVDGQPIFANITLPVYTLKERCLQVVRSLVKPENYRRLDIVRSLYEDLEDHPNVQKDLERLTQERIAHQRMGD
von Hippel-Lindau disease tumor suppressor/Focal adhesion kinase 1 (Homo sapiens), sequence (Q05397 2-1052 limits assumed): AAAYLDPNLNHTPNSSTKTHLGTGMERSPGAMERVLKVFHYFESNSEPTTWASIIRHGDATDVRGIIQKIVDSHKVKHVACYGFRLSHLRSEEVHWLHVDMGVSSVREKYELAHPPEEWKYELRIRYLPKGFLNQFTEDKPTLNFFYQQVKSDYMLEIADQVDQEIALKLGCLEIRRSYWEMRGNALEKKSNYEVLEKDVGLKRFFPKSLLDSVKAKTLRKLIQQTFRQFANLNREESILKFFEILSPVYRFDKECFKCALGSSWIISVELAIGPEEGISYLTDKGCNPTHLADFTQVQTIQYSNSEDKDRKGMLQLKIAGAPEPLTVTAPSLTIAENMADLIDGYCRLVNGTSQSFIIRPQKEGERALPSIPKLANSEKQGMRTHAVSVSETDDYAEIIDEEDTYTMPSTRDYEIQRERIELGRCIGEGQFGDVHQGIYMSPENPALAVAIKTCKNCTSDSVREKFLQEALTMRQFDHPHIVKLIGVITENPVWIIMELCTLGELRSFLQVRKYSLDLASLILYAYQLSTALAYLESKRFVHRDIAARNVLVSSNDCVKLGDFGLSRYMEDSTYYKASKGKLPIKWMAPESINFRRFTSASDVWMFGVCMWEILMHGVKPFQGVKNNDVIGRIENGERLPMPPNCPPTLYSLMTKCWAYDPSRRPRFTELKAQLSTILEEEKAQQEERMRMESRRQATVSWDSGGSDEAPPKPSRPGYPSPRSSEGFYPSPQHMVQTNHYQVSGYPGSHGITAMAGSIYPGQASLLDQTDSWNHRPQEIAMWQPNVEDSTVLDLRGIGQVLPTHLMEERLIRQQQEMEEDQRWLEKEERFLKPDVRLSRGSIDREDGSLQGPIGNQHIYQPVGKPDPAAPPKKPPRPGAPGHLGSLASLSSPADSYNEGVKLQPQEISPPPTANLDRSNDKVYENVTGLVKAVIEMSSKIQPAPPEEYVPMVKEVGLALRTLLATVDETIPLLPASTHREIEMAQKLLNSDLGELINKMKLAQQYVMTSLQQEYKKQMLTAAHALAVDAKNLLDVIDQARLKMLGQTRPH

[5] = system: RD; assay: Cytotoxicity against human RD cells incubated for 96 hrs by DIMSCAN method; type: functional, cell-based
[6] = system: BT-474; assay: Antiproliferative activity against human BT-474 cells incubated for 72 hrs by MTT assay; type: functional, cell-based; conditions: BT-474, 72 h
[7] = system: MDA-MB-231; assay: Antiproliferative activity against human MDA-MB-231 cells incubated for 72 hrs by MTT assay; type: functional, cell-based; conditions: MDA-MB-231, 72 h
[8] = system: T47D; assay: Antiproliferative activity against human T-47D cells incubated for 72 hrs by MTT assay; type: functional, cell-based
[9] = system: MCF7; assay: Antiproliferative activity against human MCF7 cells incubated for 72 hrs by MTT assay; type: functional, cell-based; conditions: MCF7, 72 h
[10] = target: T1, Focal adhesion kinase 1; assay: Inhibition of FAK in human U87MG cells assessed as reduction in phosphorylation at Y397 residue incubated for 30 mins by Western blot analysis
[11] = target: T1, Focal adhesion kinase 1; assay: Inhibition of FAK in human A549 cells assessed as reduction in phosphorylation at Y397 residue incubated for 30 mins by Western blot analysis
[12] = target: T1, Focal adhesion kinase 1; assay: Inhibition of FAK in human OVCAR8 cells assessed as reduction in phosphorylation at Y397 residue incubated for 30 mins by Western blot analysis

Protein-tyrosine kinase 2-beta, sequence (Q14289 whole entry): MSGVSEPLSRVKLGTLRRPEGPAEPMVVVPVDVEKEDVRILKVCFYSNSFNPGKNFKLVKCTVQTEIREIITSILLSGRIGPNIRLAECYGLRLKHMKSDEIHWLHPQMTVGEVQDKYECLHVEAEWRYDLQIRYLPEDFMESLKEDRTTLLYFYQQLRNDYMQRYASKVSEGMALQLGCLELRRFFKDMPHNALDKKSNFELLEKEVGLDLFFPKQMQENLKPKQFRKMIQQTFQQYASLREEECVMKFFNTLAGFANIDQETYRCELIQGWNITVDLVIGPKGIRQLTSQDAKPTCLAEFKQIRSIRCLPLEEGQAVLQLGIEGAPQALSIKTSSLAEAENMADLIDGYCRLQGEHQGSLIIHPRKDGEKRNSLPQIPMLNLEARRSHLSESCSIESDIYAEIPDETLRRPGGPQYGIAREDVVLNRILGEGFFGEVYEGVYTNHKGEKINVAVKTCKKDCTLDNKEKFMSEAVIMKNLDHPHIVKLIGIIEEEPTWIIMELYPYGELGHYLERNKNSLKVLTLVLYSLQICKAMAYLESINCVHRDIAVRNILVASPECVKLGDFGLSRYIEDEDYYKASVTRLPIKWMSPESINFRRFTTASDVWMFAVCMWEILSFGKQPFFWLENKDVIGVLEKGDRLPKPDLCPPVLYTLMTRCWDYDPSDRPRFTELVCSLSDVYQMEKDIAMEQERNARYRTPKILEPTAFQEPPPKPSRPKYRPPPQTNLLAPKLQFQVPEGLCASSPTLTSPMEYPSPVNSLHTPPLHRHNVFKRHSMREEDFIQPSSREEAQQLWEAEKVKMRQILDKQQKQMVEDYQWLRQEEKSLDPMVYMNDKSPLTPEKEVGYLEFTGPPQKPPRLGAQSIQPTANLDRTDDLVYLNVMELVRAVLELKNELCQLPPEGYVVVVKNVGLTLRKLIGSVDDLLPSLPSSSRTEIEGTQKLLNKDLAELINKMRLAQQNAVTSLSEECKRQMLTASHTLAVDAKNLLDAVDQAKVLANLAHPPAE

Structure (SMILES): CNC(=O)c1ccccc1Nc1cc(Nc2ccc(N3CCOCC3)cc2OC)ncc1C(F)(F)F [VS-4718]
- IC50 [5]: 1220 nM

Structure (SMILES): CC1=CC[C@@]2(O)[C@H](CC[C@]2(C)O)C(C)(C)[C@@H]1CC[C@H]1[C@]2(C)CC[C@H](OC(=O)c3ccc(Cl)c(Cl)c3)C(C)(C)O[C@H]2CC[C@@]1(C)O
- IC50 [6]: 20100 nM
- IC50 [7]: 7500 nM
- IC50 [8]: 25100 nM
- IC50 [9]: 15200 nM

More lines, main results first:

- IC50 [1]: 1000 nM
- IC50 [3]: 4 nM
Structure (SMILES): CS(=O)(=O)c1cccc(CNc2nc(Nc3ccc4c(c3)CC(=O)N4)ncc2C(F)(F)F)c1
- Activity [2]: 94%

- Emax [4]: 99%
Structure (SMILES): Cc1ncsc1-c1ccc(CNC(=O)[C@@H]2C[C@@H](O)CN2C(=O)[C@@H](NC(=O)CCOCCOc2ccc(Nc3ncc(C(F)(F)F)c(NCc4cccc(N(C)S(C)(=O)=O)c4)n3)cc2)C(C)(C)C)cc1

- IC50 [10]: 8.5 nM
- IC50 [11]: 12 nM
- IC50 [12]: 15 nM
Structure (SMILES): CONC(=O)c1ccccc1Nc1cc(Nc2cc(C)nn2C(C)C)ncc1Cl [GSK-2256098]
